Tests used:
MAGL = target: T1, MAGL (Mus musculus, UniProt O35678); assay: In vitro competitive activity-based protein profiling, mouse MAGL; assay type: biochemical; details: for inhibition at 1 µM: read-out: MAGL % inh. 1 μM (mouse)
T1 construct: mouse brain membrane fraction or cell lysates for mouse assays; from tissue
T1 sequence (O35678 1-303): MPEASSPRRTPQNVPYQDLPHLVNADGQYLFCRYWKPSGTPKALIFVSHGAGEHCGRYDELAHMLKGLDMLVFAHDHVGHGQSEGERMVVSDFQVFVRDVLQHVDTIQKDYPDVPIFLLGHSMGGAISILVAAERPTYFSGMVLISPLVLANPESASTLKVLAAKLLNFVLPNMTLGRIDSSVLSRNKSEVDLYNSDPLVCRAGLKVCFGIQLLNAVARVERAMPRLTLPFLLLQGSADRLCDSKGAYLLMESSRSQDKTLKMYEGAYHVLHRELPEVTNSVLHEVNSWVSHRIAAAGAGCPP
Experimental: (§1) In Vitro Competitive Activity-Based Protein Profiling.
(§2) Proteomes (mouse brain membrane fraction or cell lysates for mouse assays; human prefrontal cortex or cell membrane fractions for human assays) (50 μL, 1.0 mg/mL total protein concentration) were preincubated with varying concentrations of inhibitors at 37° C. After 30 min, FP-Rh or HT-01 (1.0 μL, 50 μM in DMSO) was added and the mixture was incubated for another 30 min at 37° C. Reactions were quenched with SDS loading buffer (15 μL—4×) and run on SDS-PAGE. Following gel imaging, serine hydrolase activity was determined by measuring fluorescent intensity of gel bands corresponding to MAGL and FAAH using ImageJ 1.43u software.

FAAH = target: T2, FAAH (Mus musculus, UniProt O08914); assay: In vitro competitive activity-based protein profiling, mouse FAAH; assay type: biochemical; details: for inhibition at 1 µM: read-out: FAAH % inh. 1 μM (mouse)
T2 construct: mouse brain membrane fraction or cell lysates for mouse assays; from tissue
T2 sequence (O08914 1-579): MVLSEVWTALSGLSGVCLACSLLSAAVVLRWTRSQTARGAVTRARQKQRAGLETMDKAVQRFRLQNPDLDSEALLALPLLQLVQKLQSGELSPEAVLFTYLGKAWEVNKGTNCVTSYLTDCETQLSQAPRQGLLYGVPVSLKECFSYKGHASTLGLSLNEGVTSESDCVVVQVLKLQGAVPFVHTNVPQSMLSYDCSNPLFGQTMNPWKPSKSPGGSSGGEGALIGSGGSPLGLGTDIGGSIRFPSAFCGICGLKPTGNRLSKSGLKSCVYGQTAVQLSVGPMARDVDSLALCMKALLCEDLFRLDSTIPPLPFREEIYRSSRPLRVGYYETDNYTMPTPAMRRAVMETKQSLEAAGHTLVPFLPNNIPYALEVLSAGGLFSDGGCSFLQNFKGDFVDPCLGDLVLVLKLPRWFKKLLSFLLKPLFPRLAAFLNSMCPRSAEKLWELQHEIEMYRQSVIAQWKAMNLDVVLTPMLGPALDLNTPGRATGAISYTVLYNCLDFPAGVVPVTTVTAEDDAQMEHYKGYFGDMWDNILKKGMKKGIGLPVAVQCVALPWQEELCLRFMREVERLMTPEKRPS
Experimental: as §1, §2

| IC50 (MAGL) | inhibition at 1 µM (MAGL) | IC50 (FAAH) | inhibition at 1 µM (FAAH) | Structure (SMILES) |
| --- | --- | --- | --- | --- |
| 100 to 1000 nM | – | ≤ 100 nM | – | O=C(N1CCC2(CCN(Cc3cccc(Cl)c3)C2)C1)n1cc(Cl)cn1 (single isomer, unassigned) [Example 133, (4-chloro-1H-pyrazole-1-carbonyl)-7-[(3-chlorophenyl)methyl]-2,7-diazaspiro[4.4]nonane] |
| 100 to 1000 nM | – | ≤ 100 nM | – | O=C(N1CCC2(CCN(Cc3ccc(Cl)c(Cl)c3)C2)C1)n1cc(Cl)cn1 (single isomer, unassigned) [Example 139, (4-chloro-1H-pyrazol-1-yl)(7-(3,4-dichlorobenzyl)-2,7-diazaspiro[4.4]nonan-2-yl)methanone] |
| 1000 to 10000 nM | 25 to 50% | ≤ 100 nM | ≥ 75% | O=C(c1cnn(C(=O)N2CC3CN(Cc4ccccc4Cl)CC3C2)c1)N1CCCCC1 (centres unmarked) [Example 1, (5-(2-chlorobenzyl)hexahydropyrrolo[3,4-c]pyrrol-2(1H)-yl)(4-(piperidine-1-carbonyl)-1H-pyrazol-1-yl)methanone] |
| ≤ 100 nM | ≥ 75% | ≤ 100 nM | ≥ 75% | NC(=O)c1cnn(C(=O)N2CC3CN(Cc4ccc(N5CCOCC5)cc4C(F)(F)F)CC3C2)c1 (centres unmarked) [Example 2, 1-(5-(4-morpholino-2-(trifluoromethyl)benzyl)octahydropyrrolo[3,4-c]pyrrole-2-carbonyl)-1H-pyrazole-4-carboxamide] |
| 1000 to 10000 nM | 25 to 50% | 100 to 1000 nM | ≥ 75% | O=C(c1cnn(C(=O)N2CC3CN(Cc4ccc(Cl)cc4)CC3C2)c1)N1CCCCC1 (centres unmarked) [Example 4, (5-(4-chlorobenzyl)hexahydropyrrolo[3,4-c]pyrrol-2(1H)-yl)(4-(piperidine-1-carbonyl)-1H-pyrazol-1-yl)methanone] |
| – | ≥ 75% | – | ≥ 75% | O=C(c1cnn(C(=O)N2CC3CN(Cc4cccc(C(F)(F)F)c4)CC3C2)c1)N1CCOCC1 (centres unmarked) [Example 7, (4-(morpholine-4-carbonyl)-1H-pyrazol-1-yl)(5-(3-(trifluoromethyl)benzyl)hexahydropyrrolo[3,4-c]pyrrol-2(1H)-yl)methanone] |

Second part, the compound before the results:

| Structure (SMILES) | IC50 (MAGL) | inhibition at 1 µM (MAGL) | IC50 (FAAH) | inhibition at 1 µM (FAAH) |
| --- | --- | --- | --- | --- |
| O=C(N1CCC2(CCN(Cc3cccc(Cl)c3)C2)C1)n1cc(Cl)cn1 (single isomer, unassigned) [Example 132, (4-chloro-1H-pyrazol-1-yl)(7-(3-chlorobenzyl)-2,7-diazaspiro[4.4]nonan-2-yl)methanone] | 100 to 1000 nM | ≥ 75% | ≤ 100 nM | ≥ 75% |
| O=C(N1CCC2(CCN(Cc3ccc(Cl)c(Cl)c3)C2)C1)n1cc(Cl)cn1 (single isomer, unassigned) [Example 140, (4-chloro-1H-pyrazol-1-yl)(7-(3,4-dichlorobenzyl)-2,7-diazaspiro[4.4]nonan-2-yl)methanone] | ≤ 100 nM | – | ≤ 100 nM | – |
| O=C(c1cnn(C(=O)N2CC3CN(Cc4cccc(Cl)c4)CC3C2)c1)N1CCCCC1 (centres unmarked) [Example 3, (5-(3-chlorobenzyl)hexahydropyrrolo[3,4-c]pyrrol-2(1H)-yl)(4-(piperidine-1-carbonyl)-1H-pyrazol-1-yl)methanone] | 1000 to 10000 nM | 50 to 75% | 100 to 1000 nM | ≥ 75% |
| O=C(c1cnn(C(=O)N2CC3CN(Cc4cc(Cl)ccc4Cl)CC3C2)c1)N1CCOCC1 (centres unmarked) [Example 5, (5-(2,5-dichlorobenzyl)hexahydropyrrolo[3,4-c]pyrrol-2(1H)-yl)(4-(morpholine-4-carbonyl)-1H-pyrazol-1-yl)methanone] | – | ≥ 75% | – | ≥ 75% |
| O=C(c1cnn(C(=O)N2CC3CN(Cc4cc(Cl)ccc4Cl)CC3C2)c1)N1CCN(C2CC2)CC1 (centres unmarked) [Example 6, (4-cyclopropylpiperazin-1-yl)(1-(5-(2,5-dichlorobenzyl)octahydropyrrolo[3,4-c]pyrrole-2-carbonyl)-1H-pyrazol-4-yl)methanone] | – | ≥ 75% | – | 0 to 25% |

Reference: patent US10385057B2, “Pyrazole compounds and methods of making and using same” (Lundbeck La Jolla Research Center, Inc., priority 2015, dated 2019)
